Reference: patent publication US9834525B2, “Inhibitors of paxillin function and related compositions and methods” (UNIVERSITY OF TENNESSEE RESEARCH FOUNDATION, priority 2015, dated 2017)
Entries after “also recorded” stand apart in the source; their conditions may differ.

Key:
[1] = tested on: VLA-4; test: VLA-4 protein levels by flow cytometry in UM cells; type: cell-based, human; details: UM cells after treatment
Experimental: Harvested cells were washed and counted. 1.0×10^6 cells were labeled with the following cell surface antibodies: FITC anti-CD54 (ICAM-1, clone HA58, BioLegend), PE anti-CD102 (ICAM-2, clone CBR-IC2/2, BioLegend), PE-Cy7 anti-CD49d (VLA-4, clone 9F10, BioLegend), APC anti-CD106 (VCAM-1, clone STA, BioLegend), PerCP-Cy5.5 anti-CD166 (ALCAM, clone 3A6, BioLegend), Biotin anti-CD326 (EpCAM, clone 1B7, BD Biosciences) using manufacturer's conditions. Cells were incubated in antibody cocktail for 30 minutes on ice followed by two washes with PBS/2% FBS. Second-labeling step was performed using Brilliant Violet 421 Streptavidin (bv421-SA, BioLegend) for 30 minutes on ice followed by two washes as before. […]
Next, it was investigated if reduced numbers were a consequence of a reduction in UM cells proliferation. Cell cultures in the presence or absence of compound (II-4) were analyzed by follow cytometry for cytoskeletal fragmentation and proliferation. […]
FIG. 15: The paxillin inhibitor Compound (II-4) selectively affects cellular proliferation of primary UM cells that become metastatic. […] Unlabeled cells were used to control fluorescence. […] B. Quantitation of experiment +/−SD including primary UM that becomes metastatic (Mel 270), metastatic (OMM 2.1) and primary (92.1) UM cells. *P=0.0007 and **P=0.0005. […] Quantitation of VLA-4 protein levels +/−SD from n=3. […]

[2] = tested on: retinal endothelial cells (REC); test: Annexin V/PI apoptosis analysis by flow cytometry in REC; type: cell-based, human
Experimental: Harvested cells were washed twice with cold PBS/2% FBS. Pelleted cells were resuspended in Annexin V Binding Buffer (BioLegend, San Diego, Calif.) at a concentration of 5.0×10^6 cells/mL following manufacturer's instructions. 5.0×10^5 cells (100 μL) were labeled with 5 μL of FITC Annexin V and 10 μL of Propidium Iodide (PI) solution. Cells were vortexed gently and incubated for 15 minutes at RT in dark. 300 μL of Annexin V Binding Buffer were added to each sample tube and analyzed in BD LSRII Flow Cytometry Analyzer (BD Biosciences, San Jose, Calif.). Apoptotic cells were defined as Annexin V^+PI^neg while necrotic cells are defined as Annexin V^+PI^+. […]
To investigate the potential of compound (II-4) affecting the proliferative capacity of RECs treated with VEGF, proliferation was measured using the metabolic assay based on the tetrazolium salt, WST-1. […] Cells were harvested and apoptosis measured with Annexin-V/Propidium Iodide (PI) staining and analyzed using flow cytometry.
FIG. 18: REC Proliferation and Flow cytometry analysis of apoptosis in REC. A) VEGF-induced cellular proliferation was assessed using the WST-1 metabolic assay. […] B) Apoptosis was measured using Annexin V/PI staining Compound (II-4) (1 μM) appears to be non-cytotoxic to retinal endothelial cells after 24 hour incubation (n≈10,000 cells).

COc1cc(C2OC(=O)Nc3c2ccc2ccccc32)cc(OC)c1OC (stereo not drawn) [compound II-4]
VLA-4 protein levels [1]: does not affect VLA-4 protein
spontaneous apoptosis in REC (PI and Annexin V) ([2]; 1 μM for 4-hrs): did not cause an increase in spontaneous apoptosis
apoptosis / cytotoxicity in REC (Annexin-V/PI) ([2]; 1 μM for 24 hours): No evidence of apoptosis was detected; also recorded: non-cytotoxic
